# Active and inactive are the calls of the source. The rule behind the calls is not given here.
# What was measured:
# MX1 [1] = assay: Antitumor activity against human MX1 cells xenografted in athymic nude mouse assessed as total tumor remission at 10 mg/kg, iv administered q2d for 3 days measured after 20 days; assay type: functional, organism-based; parameters: dose 10 mg/kg
# CCRF-CEM [2] = assay: Cytotoxicity against taxol-resistant human CCRF-CEM cells after 72 hrs by XTT assay; assay type: functional, cell-based
# [3] = Cytotoxicity against human H1299 cells after 72 hrs by WST1 assay; assay type: functional, cell-based; conditions: NCI-H1299, 72 h
# MX1 [4] = assay: Cytotoxicity against human MX1 cells after 72 hrs by SRB assay; assay type: functional, cell-based; conditions: MX1, 72 h
# MX1 [5] = assay: Antitumor activity against human MX1 cells xenografted in athymic nude mouse assessed as total tumor remission at 10 mg/kg, iv administered q2d for 3 days measured after 18 days; assay type: functional, organism-based; parameters: dose 10 mg/kg
# CCRF-CEM [6] = assay: Ratio of IC50 for taxol-resistant human CCRF-CEM cells to IC50 for human CCRF-CEM cells; assay type: functional
# CCRF-CEM [7] = assay: Cytotoxicity against human CCRF-CEM cells after 72 hrs by XTT assay; assay type: functional, cell-based; conditions: read-out: IC50
# MCF7 = assay: Cytotoxicity against human MCF7 cells after 72 hrs by WST1 assay; assay type: functional, cell-based; conditions: MCF7, 72 h
# CCRF-CEM [8] = assay: Ratio of IC50 for vinblastine-resistant human CCRF-CEM cells to IC50 for human CCRF-CEM cells; assay type: functional
# [9] = Cytotoxicity against human CL1-0 cells after 72 hrs by WST1 assay; assay type: functional, cell-based; conditions: CL1-0, 72 h
# CCRF-CEM [10] = assay: Cytotoxicity against vinblastine-resistant human CCRF-CEM cells after 72 hrs by XTT assay; assay type: functional, cell-based
# [11] = Cytotoxicity against human CL1-5 cells after 72 hrs by WST1 assay; assay type: functional, cell-based; conditions: CL1-5, 72 h
# PC-3 = assay: Cytotoxicity against human PC3 cells after 72 hrs by WST1 assay; assay type: functional, cell-based; conditions: PC-3, 72 h
# HCT-116 [12] = assay: Cytotoxicity against human HCT116 cells after 72 hrs by SRB assay; assay type: functional, cell-based; conditions: HCT-116, 72 h
# MX1 [13] = assay: Antitumor activity against human MX1 cells xenografted in athymic nude mouse assessed as total tumor remission at 10 mg/kg, iv administered q2d for 3 days measured after 16 days; assay type: functional, organism-based; parameters: dose 10 mg/kg
# MX1 [14] = assay: Antitumor activity against human MX1 cells xenografted in athymic nude mouse assessed as total tumor remission at 40 mg/kg, iv administered q2d for 5 days measured after 20 days; assay type: functional, organism-based; parameters: dose 40 mg/kg
# MX1 [15] = assay: Antitumor activity against human MX1 cells xenografted in athymic nude mouse assessed as no tumor relapse at 50 mg/kg, iv administered q2d for 5 days measured after 129 days; assay type: functional, organism-based; parameters: dose 50 mg/kg
# MX1 [16] = assay: Antitumor activity against human MX1 cells xenografted in athymic nude mouse assessed as total tumor remission at 50 mg/kg, iv administered q2d for 5 days measured after 12 days; assay type: functional, organism-based; parameters: dose 50 mg/kg
# HCT-116 [17] = assay: Antitumor activity against human HCT116 cells xenografted in athymic nude mouse assessed as tumor growth inhibition at 50 mg/kg, iv administered q2d for 7 days; assay type: functional; parameters: scale not given: the % may be the effect or the level left
# H1299 [18] = assay: Induction of DNA interstrand cross-linking in 20 Gy irradiated human H1299 cells at 200 uM after 1 hr by comet assay; assay type: cell-based
# [19] = Stability in rat plasma assessed as half life at 5 ug/ml after 10 mins by HPLC; assay type: ADME, cell-free
# H1299 [20] = assay: Induction of DNA interstrand cross-linking in 20 Gy irradiated human H1299 cells after 1 hr by comet assay; assay type: cell-based
# MX1 [21] = assay: Antitumor activity against human MX1 cells xenografted in athymic nude mouse assessed as total tumor remission at 50 mg/kg, iv administered q2d for 5 days measured after 20 days; assay type: functional, organism-based; parameters: dose 50 mg/kg
# H1299 [22] = assay: Induction of DNA interstrand cross-linking in 20 Gy irradiated human H1299 cells at 10 uM after 1 hr by comet assay; assay type: cell-based
# Mus musculus = assay: Toxicity in athymic nude mouse xenografted with human HCT116 cells assessed as body weight loss at 50 mg/kg, iv administered q2d for 7 days; assay type: organism-based, HCT-116; parameters: dose 50 mg/kg, route intravenous; conditions: in vivo, 168 h
# H1299 [23] = assay: Induction of DNA interstrand cross-linking in 20 Gy irradiated human H1299 cells assessed as decrease in DNA migration after 1 hr by comet assay; assay type: cell-based
# MX1 [24] = assay: Antitumor activity against human MX1 cells xenografted in athymic nude mouse assessed as total tumor remission at 50 mg/kg, iv administered q2d for 9 days measured after 31 days; assay type: functional, organism-based; parameters: dose 50 mg/kg
# MX1 [25] = assay: Antitumor activity against human MX1 cells xenografted in athymic nude mouse assessed as total tumor remission at 50 mg/kg, iv administered q2d for 9 days measured after 35 days; assay type: functional, organism-based; parameters: dose 50 mg/kg
# MX1 [26] = assay: Antitumor activity against human MX1 cells xenografted in athymic nude mouse assessed as total tumor remission at 50 mg/kg, iv administered q2d for 9 days measured after 29 days; assay type: functional, organism-based; parameters: dose 50 mg/kg
# MX1 [27] = assay: Antitumor activity against human MX1 cells xenografted in athymic nude mouse assessed as total tumor remission at 50 mg/kg, iv administered q2d for 9 days measured after 33 days; assay type: functional, organism-based; parameters: dose 50 mg/kg
# MX1 [28] = assay: Antitumor activity against human MX1 cells xenografted in athymic nude mouse assessed as total tumor remission at 100 mg/kg, iv administered qd for 6 days measured after 20 days; assay type: functional, organism-based; parameters: dose 100 mg/kg
# MX1 [29] = assay: Antitumor activity against human MX1 cells xenografted in athymic nude mouse assessed as total tumor remission at 100 mg/kg, iv administered qd for 6 days measured after 22 days; assay type: functional, organism-based; parameters: dose 100 mg/kg
# MX1 [30] = assay: Antitumor activity against human MX1 cells xenografted in athymic nude mouse assessed as no tumor relapse at 100 mg/kg, iv administered qd for 6 days measured after 59 days; assay type: functional, organism-based; parameters: dose 100 mg/kg
Structure (SMILES),IC50 (CCRF-CEM [2]),IC50 [3],IC50 (MX1 [4]),Ratio IC50 (CCRF-CEM [6]),IC50 (CCRF-CEM [7]),IC50 (MCF7),Ratio IC50 (CCRF-CEM [8]),IC50 [9],IC50 (CCRF-CEM [10]),IC50 [11],IC50 (PC-3),IC50 (HCT-116 [12]),further results
CCOC(=O)Nc1cc(COC(=O)Oc2ccc(N(CCCl)CCCl)cc2)cc(Nc2c3ccccc3nc3ccccc23)c1,509 nM,527 nM,89 nM,1.6,315 nM,19.8 µM,1.5,410 nM,482 nM,4.56 µM,23.3 µM,639 nM,Activity (MX1 [1]): Active; Activity (MX1 [5]): Active; Activity (MX1 [13]): Active
COc1ccc(Nc2c3ccccc3nc3c(C)cccc23)cc1NC(=O)Oc1ccc(N(CCCl)CCCl)cc1,27 nM,357 nM,138 nM,1.1,24 nM,3.43 µM,7.9,2250 nM,190 nM,8.85 µM,1.58 µM,238 nM,–
Cc1cccc2c(Nc3cc(CO)cc(NC(=O)Oc4ccc(N(CCCl)CCCl)cc4)c3)c3ccccc3nc12,97 nM,457 nM,84 nM,1.4,67 nM,9.01 µM,1.9,1870 nM,127 nM,12.6 µM,5.98 µM,438 nM,Activity (MX1 [14]): Active
O=C(Nc1cc(CO)cc(Nc2c3ccccc3nc3ccccc23)c1)Oc1ccc(N(CCCl)CCCl)cc1,140 nM,284 nM,99 nM,1.9,75 nM,4.8 µM,2.5,2700 nM,184 nM,5.06 µM,1.61 µM,568 nM,Activity (MX1 [15]): Active; Activity (MX1 [16]): Active; Activity (HCT-116 [17]): 98%; Activity (H1299 [18]): 39.7%; half-life at 5 ug/ml [19]: 385 min; Activity (H1299 [20]): Dose-dependent effect; Activity (MX1 [21]): Active; Activity (H1299 [22]): 74.2%; Activity (Mus musculus): 8%; Activity (H1299 [23]): Dose-dependent effect
CC(C)OC(=O)Nc1cc(COC(=O)Nc2ccc(N(CCCl)CCCl)cc2)cc(Nc2c3ccccc3nc3ccccc23)c1,648 nM,9170 nM,1130 nM,3.4,189 nM,7.01 µM,4,4000 nM,753 nM,6.63 µM,16 µM,301 nM,–
Cc1ccc(NC(=O)Oc2ccc(N(CCCl)CCCl)cc2)cc1Nc1c2ccccc2nc2c(C)cccc12,138 nM,623 nM,163 nM,1.05,132 nM,5.71 µM,0.7,4660 nM,93 nM,10.6 µM,4.47 µM,263 nM,–
Cc1ccc(Nc2c3ccccc3nc3c(C)cccc23)cc1NC(=O)Oc1ccc(N(CCCl)CCCl)cc1,169 nM,–,286 nM,1.3,132 nM,–,1.2,–,157 nM,–,–,607 nM,Activity (HCT-116 [17]): 89%; Activity (MX1 [24]): Active; Activity (MX1 [25]): Active; Activity (MX1 [26]): Active; Activity (Mus musculus): 8%; Activity (MX1 [27]): Active
COc1cc(NC(=O)Oc2ccc(N(CCCl)CCCl)cc2)cc(Nc2c3ccccc3nc3ccccc23)c1,309 nM,–,340 nM,1.5,200 nM,–,0.54,–,108 nM,–,–,1710 nM,Activity (MX1 [28]): Active; Activity (MX1 [29]): Active; Activity (MX1 [30]): Active
